Experiments:
P. aeruginosa biofilms [1] = experiment: Biofilm dispersion in 24-well plates, crystal violet staining of remaining biofilm biomass; assay type: cell-based, Pseudomonas aeruginosa; conditions: controls: heat-inactivated PDH increasing concentrations; cofactors; acetyl-CoA 0.2 mM; NADH 2 mM; lactate 10 mM
Experimental: P. aeruginosa biofilms grown for 4 days in 24-well plates were exposed to pyruvate-depleting conditions. This was accomplished by exposing biofilms to increasing concentration of the enzyme pyruvate dehydrogenase (PDH) having a specific activity of 0.57 U/mg. PDH catalyzes the conversion of pyruvate to acetyl-CoA in the presence of CoA and NAD^+. Specifically, biofilms were exposed to 5, 10, and 20 mU (8.7, 17.4, and 32.8 mg enzyme) of PDH in the presence of NAD^+ and CoA. Biofilms grown in LB but left untreated were used as controls. Following overnight incubation, the remaining biofilm was stained using crystal violet.
Biofilms were grown in a 24-well plate system modified from the procedure described by Caiazza and O'Toole (2004) to elucidate the role of pyruvate in biofilm formation and biofilm dispersion.
Overnight cultures grown in LB medium were adjusted to an OD600 of 0.05 in fresh 5-fold diluted LB VBMM and grown at 37° C. and rotated at 220 r.p.m. in 24-well microtiter plates at a 45° angle, ensuring that the bottom of the wells is at the air-liquid interface, with the medium exchanged every 12 h.
For biofilm dispersion, biofilms were first grown for 4 days after which time the growth medium was supplemented with 10 mU porcine pyruvate dehydrogenase, cofactors (1 mM b-NAD, 1 mM sodium Co-A, 20 μM TPP) and allowed to incubate for an additional 16 h.

P. aeruginosa biofilms [2] = experiment: Microscopy (confocal, brightfield) of biofilm architecture and microcolony void formation; assay type: cell-based, Pseudomonas aeruginosa; conditions: 4-day biofilms, PDH 10 mU plus 500 uM SNP as NO source, 16 h
Text: To determine how exposure to PDH accomplished a reduction in the biofilm biomass, the remaining biofilm architecture was visually analyzed by confocal microscopy. Relative to untreated biofilms, biofilms exposed to PDH were not only characterized by an overall reduced biofilm biomass but by microcolonies having central voids (FIGS. 2E3 and 2F2). Void formation has previously linked with biofilm dispersion, a process in which sessile, surface-attached organisms liberate themselves from the biofilm to return to the planktonic state. […] In contrast, the vast majority of microcolonies by untreated biofilms were intact (FIG. 2E1), with only less than 8% of the microcolonies featuring central void formation (FIG. 2G). […]
Differences in the biofilm architecture were visualized by crystal violet staining or microscopy (brightfield, confocal laser scanning). Differences in drug susceptibility were evaluated by viability count.
FIGS. 15A-15F show the effect of PDH nanoparticles (NP) on biofilms. […] Biofilm biomass was quantitatively determined by confocal microscopy and COMSTAT analysis prior/post 24 h PDH treatment. […]
Biofilms were grown for 4 days in 24-well polystyrene plates in five-fold diluted LB. […] Number of microcolonies as percent of the total colonies counted per treatment group is shown. […]

P. aeruginosa ATCC 27312 = experiment: Porcine burn wound biofilm infection model; assay type: in vivo, Pseudomonas aeruginosa
Experimental: The well-known clinical burn wound isolate P. aeruginosa ATCC 27312 was employed.
Burn wounds were inoculated with 25 μl of a standardized P. aeruginosa suspension harboring 10^6 CFU/ml and allowed to establish biofilms for 24 h. Infected wounds were subsequently treated daily with 100 and 200 mU PDH in the absence of presence of 100 μg/ml tobramycin. Untreated wounds and wounds only exposed to carrier solution were used as controls. Following 3 and 6 days of treatment, bacterial cells present in wounds were harvested using a flush and scrub technique that separates biofilm bacteria from planktonic bacteria, by flushing the non-adherent (planktonic) bacteria off the wound, followed by scrubbing of the wound to remove adherent biofilm-associated bacteria from the wound bed.
Second degree porcine burn wounds were infected with P. aeruginosa ATCC® 27312™. […] Then, bacterial cells were removed from the wounds and the number of viable cells, as shown in (CFU) per wound determined using viability counts. […] Experiments are representative data obtained using 3 wounds per treatment group (n=3). Error bars represent standard deviation.

P. aeruginosa biofilms [3] = experiment: Biofilm susceptibility assay, viability count; assay type: cell-based, Pseudomonas aeruginosa; conditions: 4-day biofilms, tobramycin 100 μg/ml, PDH 10 mU where present, overnight
Experimental: It is well established that planktonic cells are more susceptible to antimicrobial agents than their counterparts growing as a biofilm, and that dispersion coincides with bacteria transitioning to the planktonic mode of growth. […] P. aeruginosa biofilms grown for 4 days in 24-well plates were exposed to 100 μg/ml tobramycin in the absence of presence of PDH. Following overnight incubation, the number of viable biofilm cells were determined using viability count. […] Tobramycin in the presence of 10 mU PDH coincided with a reduction in the biofilm biomass to 3.5×10^3 cells/biofilm (FIG. 12A), with the reduction in the viable cells being equivalent to an overall 5.9-log reduction in the biofilm biomass relative to untreated biofilms. […] For susceptibility assays, biofilms were grown as for dispersion assays, but following 4 days of growth, the growth medium was supplemented the aminoglycoside antibiotic tobramycin (100 μg/ml), 10 mU porcine pyruvate dehydrogenase, and cofactors (1 mM b-NAD, 1 mM sodium Co-A, 20 μM TPP). Untreated biofilms or biofilms only exposed to cofactors alone were used as controls. Differences in the biofilm architecture were visualized by crystal violet staining or microscopy (brightfield, confocal laser scanning). Differences in drug susceptibility were evaluated by viability count.

## NC(=O)c1ccc[n+]([C@@H]2O[C@H](COP(=O)([O-])OP(=O)(O)OC[C@H]3O[C@@H](n4cnc5c(N)ncnc54)[C@H](O)[C@@H]3O)[C@@H](O)[C@H]2O)c1 [NAD+]
P. aeruginosa biofilms [1]
  effect on biofilm biomass relative to untreated biofilms: no effect

## NC(=O)C1=CN([C@@H]2O[C@H](COP(=O)(O)OP(=O)(O)OC[C@H]3O[C@@H](n4cnc5c(N)ncnc54)[C@H](O)[C@@H]3O)[C@@H](O)[C@H]2O)C=CC1 [NADH]
P. aeruginosa biofilms [1]
  effect on biofilm biomass relative to untreated biofilms: did not result in increased biofilm biomass accumulation

## CC(=O)SCCNC(=O)CCNC(=O)[C@H](O)C(C)(C)COP(=O)(O)OP(=O)(O)OC[C@H]1O[C@@H](n2cnc3c(N)ncnc32)[C@H](O)[C@@H]1OP(=O)(O)O [acetyl-CoA]
P. aeruginosa biofilms [1]
  effect on biofilm biomass relative to untreated biofilms: did not result in increased biofilm biomass accumulation

## CC(O)C(=O)O (stereo not drawn) [lactate]
P. aeruginosa biofilms [1]
  effect on biofilm biomass relative to untreated biofilms: no difference

## [N]=O [nitric oxide]
P. aeruginosa biofilms [2]
  effect on PDH-induced dispersion of biofilms (microcolonies with void formation): can enhance

## NC[C@H]1O[C@H](O[C@H]2[C@H](O)[C@@H](O[C@H]3O[C@H](CO)[C@@H](O)[C@H](N)[C@H]3O)[C@H](N)C[C@@H]2N)[C@H](N)C[C@@H]1O [tobramycin]
P. aeruginosa ATCC 27312; as stated in the summary, tobramycin with or without pyruvate-depleting conditions
  log reduction of P. aeruginosa biofilms present in porcine burn wounds: 2.5 log
P. aeruginosa ATCC 27312; tobramycin 100 μg/ml daily
  log reduction in viable biofilm cells (scrub) relative to untreated: 2 log
P. aeruginosa biofilms [3]
  log reduction of the biofilm biomass (viable cells) relative to untreated: 2.5 log
P. aeruginosa biofilms [3]; untreated 2.4×10^8
  number of viable cells remaining: 1.2×10^5 cells per biofilm

From patent publication US11541105B2, “Compositions and methods for disrupting biofilm formation and maintenance” (The Research Foundation for the State University of new York, priority 2018, dated 2023)
